The text below walks through data of US9586951B2 (FUJIFILM Corporation, priority 2013, dated 2017).

In experiment [1] the test system is human non-small cell lung cancer cell line NCI-H460. Briefly: Cell proliferation inhibition test by sensitivity-enhancing to ionizing radiation (Cell Titer Glo). Format: cell-based. As to conditions: Homo sapiens, NCI-H460, 120 h, concentration in which SER became 2; NCI-H460 cells, ionizing radiation 2 Gy, cultured 120 hour. The method, boiled down: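 Radiosensitisation measured as SER, a ratio of Cell Titer Glo luminescence in irradiated vs unirradiated plates relative to DMSO; SER2, the concentration yielding SER 2, came from sigmoidal regression. Compound (0.1% DMSO) was given 24 h post-seeding, 2 Gy applied 30 min later, then 120 hour culture at 37° C.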

The next experiment has as its target T1, ATM (Homo sapiens, UniProt Q13315).
T1 construct: detecting phosphorylation of Chk2 in a human non-small cell lung cancer cell line NCI-H460 (ATCC company); host or cells: NCI-H460 human non-small cell lung cancer cells
Briefly: ATM inhibition test (phosphorylation of Chk2 generated by ionizing radiation, AlphaScreen SureFire). It counts as cell-based. As to conditions: phosphorylated Chk2 in NCI-H460 cells, ionizing radiation 8Gy, 1 hour after test compound treatment; read-out: ATM inhibitory activity. The method, boiled down: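 Phosphorylated Chk2 read by AlphaScreen SureFire in human non-small cell lung cancer NCI-H460 cells, 1 hour after 8Gy ionizing radiation at 37° C. Compound added 1 hour before irradiation. Percent inhibition normalised between irradiated and non-irradiated drug-untreated signals.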
(Alpha assays give light when donor and acceptor beads are brought close together.)

SMILES strings stand for the structures.

T1 sequence (Q13315 whole entry): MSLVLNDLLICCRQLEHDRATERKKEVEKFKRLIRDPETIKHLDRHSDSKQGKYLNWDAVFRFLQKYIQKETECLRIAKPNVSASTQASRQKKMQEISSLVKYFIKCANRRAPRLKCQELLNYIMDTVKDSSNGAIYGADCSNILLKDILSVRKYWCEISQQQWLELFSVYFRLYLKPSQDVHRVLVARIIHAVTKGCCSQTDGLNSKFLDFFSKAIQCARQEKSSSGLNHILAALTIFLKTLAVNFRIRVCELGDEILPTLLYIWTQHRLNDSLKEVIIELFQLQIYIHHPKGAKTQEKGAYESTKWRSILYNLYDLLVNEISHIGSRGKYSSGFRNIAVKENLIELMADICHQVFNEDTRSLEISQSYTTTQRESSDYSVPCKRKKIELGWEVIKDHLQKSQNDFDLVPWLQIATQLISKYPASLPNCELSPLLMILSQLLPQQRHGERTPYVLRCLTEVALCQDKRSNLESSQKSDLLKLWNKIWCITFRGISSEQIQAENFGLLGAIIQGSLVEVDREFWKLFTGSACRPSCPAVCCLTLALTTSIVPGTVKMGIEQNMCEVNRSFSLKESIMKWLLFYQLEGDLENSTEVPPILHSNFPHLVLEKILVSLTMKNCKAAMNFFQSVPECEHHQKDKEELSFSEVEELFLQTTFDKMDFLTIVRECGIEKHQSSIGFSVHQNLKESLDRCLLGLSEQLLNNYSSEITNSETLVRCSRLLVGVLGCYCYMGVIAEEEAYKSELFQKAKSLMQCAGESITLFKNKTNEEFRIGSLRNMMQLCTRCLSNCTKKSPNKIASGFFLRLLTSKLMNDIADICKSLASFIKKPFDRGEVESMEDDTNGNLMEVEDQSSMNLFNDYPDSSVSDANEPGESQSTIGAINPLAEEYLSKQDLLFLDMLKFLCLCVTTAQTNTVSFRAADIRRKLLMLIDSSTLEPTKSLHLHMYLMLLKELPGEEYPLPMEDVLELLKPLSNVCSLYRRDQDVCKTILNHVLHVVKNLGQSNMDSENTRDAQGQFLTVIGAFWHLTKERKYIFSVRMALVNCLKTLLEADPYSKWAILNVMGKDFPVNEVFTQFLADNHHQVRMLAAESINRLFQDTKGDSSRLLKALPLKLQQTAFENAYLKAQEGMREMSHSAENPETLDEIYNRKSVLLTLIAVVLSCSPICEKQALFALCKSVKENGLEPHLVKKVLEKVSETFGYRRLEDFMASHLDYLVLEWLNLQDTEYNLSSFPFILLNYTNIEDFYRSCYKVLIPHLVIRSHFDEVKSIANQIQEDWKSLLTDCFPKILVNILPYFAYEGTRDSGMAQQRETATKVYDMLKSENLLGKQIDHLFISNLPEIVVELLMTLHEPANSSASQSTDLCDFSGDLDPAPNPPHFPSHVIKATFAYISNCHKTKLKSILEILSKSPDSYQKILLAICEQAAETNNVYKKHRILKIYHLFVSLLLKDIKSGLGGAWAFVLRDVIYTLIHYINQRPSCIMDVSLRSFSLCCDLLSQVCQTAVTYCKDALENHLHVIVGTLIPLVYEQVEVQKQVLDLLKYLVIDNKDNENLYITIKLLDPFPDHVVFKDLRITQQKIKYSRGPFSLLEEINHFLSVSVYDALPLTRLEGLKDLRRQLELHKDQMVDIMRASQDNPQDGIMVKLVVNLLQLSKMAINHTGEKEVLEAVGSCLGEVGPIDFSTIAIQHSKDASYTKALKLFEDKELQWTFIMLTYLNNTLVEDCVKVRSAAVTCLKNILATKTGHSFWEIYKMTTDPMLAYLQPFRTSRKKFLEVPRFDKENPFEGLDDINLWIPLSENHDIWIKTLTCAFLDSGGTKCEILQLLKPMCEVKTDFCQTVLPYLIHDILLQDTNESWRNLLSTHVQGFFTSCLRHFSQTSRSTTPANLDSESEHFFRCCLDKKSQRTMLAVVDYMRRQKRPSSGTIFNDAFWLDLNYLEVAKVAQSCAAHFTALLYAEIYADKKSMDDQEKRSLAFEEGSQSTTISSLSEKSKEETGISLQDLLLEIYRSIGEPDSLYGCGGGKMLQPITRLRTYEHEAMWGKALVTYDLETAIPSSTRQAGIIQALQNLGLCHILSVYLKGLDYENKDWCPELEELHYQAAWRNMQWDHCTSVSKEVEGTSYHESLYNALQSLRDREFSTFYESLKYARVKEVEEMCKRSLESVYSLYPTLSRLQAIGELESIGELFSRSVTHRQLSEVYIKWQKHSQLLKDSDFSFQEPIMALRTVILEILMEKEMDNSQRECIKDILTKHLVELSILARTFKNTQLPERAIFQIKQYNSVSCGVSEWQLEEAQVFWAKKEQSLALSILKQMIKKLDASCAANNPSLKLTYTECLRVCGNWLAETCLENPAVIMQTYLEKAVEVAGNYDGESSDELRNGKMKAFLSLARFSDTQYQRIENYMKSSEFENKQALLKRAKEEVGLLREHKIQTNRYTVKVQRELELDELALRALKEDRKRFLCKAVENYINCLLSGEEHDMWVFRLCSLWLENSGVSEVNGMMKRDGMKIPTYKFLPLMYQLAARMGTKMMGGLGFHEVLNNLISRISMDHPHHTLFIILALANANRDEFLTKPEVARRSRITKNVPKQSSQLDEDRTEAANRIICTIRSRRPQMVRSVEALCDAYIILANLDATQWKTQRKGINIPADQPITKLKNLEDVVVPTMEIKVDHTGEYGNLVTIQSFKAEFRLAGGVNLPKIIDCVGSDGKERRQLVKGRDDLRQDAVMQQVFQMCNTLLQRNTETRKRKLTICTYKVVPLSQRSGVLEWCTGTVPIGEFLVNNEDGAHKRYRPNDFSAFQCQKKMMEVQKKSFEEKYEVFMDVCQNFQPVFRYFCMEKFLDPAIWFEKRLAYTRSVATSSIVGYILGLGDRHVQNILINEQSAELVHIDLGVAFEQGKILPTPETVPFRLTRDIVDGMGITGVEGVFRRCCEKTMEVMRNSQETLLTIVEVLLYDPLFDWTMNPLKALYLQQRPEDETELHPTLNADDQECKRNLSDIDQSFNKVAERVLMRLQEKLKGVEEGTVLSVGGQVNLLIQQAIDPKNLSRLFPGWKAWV

For `Cc1cncc(C(C)Nc2ccc3c(c2)Sc2cccc(-c4cc(N5CCOCC5)cc(=O)[nH]4)c2S3)c1` (stereo not shown) [Example 1-12-50, 6-(7-((1-(5-Methylpyridin-3-yl)ethyl)amino)thianthren-1-yl)-4-morpholino pyridin-2 (1H)-one], the SER2 (concentration at which the radiation sensitivity-enhancement ratio reaches 2) in experiment [1] was in the range of 100 to 500 nM. In addition, on ATM, the IC50 was less than 100 nM.
Take `Cc1ccc(C(Nc2ccc3c(c2)Sc2cccc(-c4cc(N5CCOCC5)cc(=O)[nH]4)c2S3)C2CCN(C)CC2)nc1` (stereo not shown) [Example 1-35, 6-(7-(((1-methylpiperidin-4-yl)(5-methylpyridin-2-yl)methyl)amino)thianthren-1-yl)-4-morpholinopyridin-2(1H)-one]: the SER2 (concentration at which the radiation sensitivity-enhancement ratio reaches 2) in experiment [1] was less than 100 nM. In addition, the IC50 at ATM is less than 100 nM.
As for `Cc1ccc(CNc2ccc3c(c2)Sc2cccc(-c4cc(N5CCOCC5)cc(=O)[nH]4)c2O3)cn1` [Example 4-8-23, 6-(8-(((6-Methylpyridin-3-yl)methyl)amino)phenoxathiin-4-yl)-4-morpholino pyridin-2(1H)-one], the SER2 (concentration at which the radiation sensitivity-enhancement ratio reaches 2) in experiment [1] was 100 to 500 nM. In addition, the IC50 at ATM is less than 100 nM.
For `O=c1cc(N2CCOCC2)cc(-c2cccc3c2Sc2ccc(NCCN4CCCCC4)cc2S3)[nH]1` [Example 1-10-10], the SER2 (concentration at which the radiation sensitivity-enhancement ratio reaches 2) in experiment [1] was 100 to 500 nM. The IC50 on ATM was less than 100 nM.
Consider `O=c1cc(N2CCOCC2)cc(-c2cccc3c2Sc2ccc(NCCN4CCOCC4)cc2S3)[nH]1` [Example 1-10-7, 4-Morpholino-6-(7-((2-morpholinoethyl)amino)thianthren-1-yl)pyridin-2 (1H)-one], for which the SER2 (concentration at which the radiation sensitivity-enhancement ratio reaches 2) in experiment [1] fell in the range of 100 to 500 nM. Besides, the IC50 on ATM is less than 100 nM.
The like results for `COc1ccnc(C(C)Nc2ccc3c(c2)Sc2cccc(-c4cc(N5CCOCC5)cc(=O)[nH]4)c2S3)n1` (stereo not shown) [Example 1-12-77, 6-(7-((1-(4-Methoxypyrimidin-2-yl)ethyl)amino)thianthren-1-yl)-4-morpholino pyridin-2(1H)-one] were, in that order, 100 to 500 nM and less than 100 nM.
`Cc1cnc(C(C)Nc2ccc3c(c2)Cc2cccc(-c4cc(N5CCOCC5)cc(=O)[nH]4)c2O3)nc1` (stereo not shown) [Example 2-14-80, 6-(7-((1-(5-Methylpyrimidin-2-yl)ethyl)amino)-9H-xanthen-4-yl)-4-morpholino pyridin-2 (1H)-one]: in experiment [1], the SER2 (concentration at which the radiation sensitivity-enhancement ratio reaches 2) was in the range of 100 to 500 nM. Also, the IC50 on ATM is less than 100 nM.
With `Cc1cc(CNc2ccc3c(c2)Cc2cccc(-c4cc(N5CCOCC5)cc(=O)[nH]4)c2O3)ccn1` [Example 2-2-20, 6-(7-(((2-Methylpyridin-4-yl)methyl)amino)-9H-xanthen-4-yl)-4-morpholino pyridin-2(1H)-one], the SER2 (concentration at which the radiation sensitivity-enhancement ratio reaches 2) in experiment [1] is 500 to 2000 nM. In addition, on ATM, the IC50 is less than 100 nM.
The like results for `COc1cnc(C(C)Nc2ccc3c(c2)Sc2cccc(-c4cc(N5CCOCC5)cc(=O)[nH]4)c2S3)cn1` (stereo not shown) [Example 1-12-114, 6-(7-((1-(5-Methoxypyrazin-2-yl)ethyl)amino)thianthren-1-yl)-4-morpholino pyridin-2(1H) one] were, in that order, 100 to 500 nM and less than 100 nM.
`CCN(C)CCC(Nc1ccc2c(c1)Sc1cccc(-c3cc(N4CCOCC4)cc(=O)[nH]3)c1S2)c1cccc(C)n1` (stereo not shown) [Example 1-23-1, 6-(7-((3-(ethyl(methyl)amino)-1-(6-methylpyridin-2-yl)propyl)amino)thianthren-1-yl)-4-morpholinopyridin-2(1H)-one]: the SER2 (concentration at which the radiation sensitivity-enhancement ratio reaches 2) in experiment [1] was 100 to 500 nM. Further, the IC50 at ATM was less than 100 nM.
Consider `Cc1ccnc(C(C)Nc2ccc3c(c2)Cc2cccc(-c4cc(N5CCOCC5)cc(=O)[nH]4)c2O3)c1` (stereo not shown) [Example 2-14-19, 6-(7-((1-(4-Methylpyridin-2-yl)ethyl)amino)-9H-xanthen-4-yl)-4-morpholino pyridin-2(1H)-one], for which the SER2 (concentration at which the radiation sensitivity-enhancement ratio reaches 2) in experiment [1] lay in the range of 100 to 500 nM. Besides, the IC50 on ATM was 100 to 500 nM.
